Test results taken from US9988348B1, “Synthesis and antimicrobial use of a trithiocarbonate derivative” (KING SAUD UNIVERSITY, priority 2017, dated 2018).
Marks after values point to notes of the source that are not given here.

Experiment: biological effects of compound 4 alone in mice (not infected)
Type: in vivo
Design: Total Protein Mean ± SE: unit not given here
Settings: for daily body weight / % change in daily body weight / Food consumption / Mortality / Water consumption: i.v. 12 mg/kg then 6 mg/ml
Protocol: The experiment was performed in Experimental Animal Care Center (EACC), College of Pharmacy, King Saud University, Riyadh. Fifty Albino male mice, weighing nearly 30±2 gram were used. The mice were arranged in five groups, each including ten mice caged together, given water, and feed ad libitum. […] The group treated with standard drug (fluconazole) was infected intravenously with 0.2 ml of C. albicans suspension (10^6 CFU/mouse) and treated (orally) by 12 mg/kg of fluconazole (loading dose) on the first day followed by 6 mg/ml for 2 weeks.
The biological parameters included daily body weight (gm), mortality (%), food consumption (g/day/mouse), water consumption (ml/day/mouse), serum glutamic oxaloacetic transaminase [SGOT(AST) (U/L)], serum glutamic-pyruvic transaminase [SGPT(ALT)(U/L)], alkaline phosphatase (U/L), gamma-glutamyl transferase (GGT) (U/L), bilirubin (mg/dl)], cholesterol (mg/dl), triglycerides (mg/dl), high-density lipoprotein (HDL) (mg/dl), very-low-density lipoprotein (VLDL) (mg/dl), low-density lipoprotein (LDL) (mg/dl), lactate dehydrogenase (LDH) (U/L), glucose (mg/dl), total protein (mg/dl), malondialdehyde (MDA) (nmol/g), nonprotein sulfyhydryl (NP-SH) (nmol/g). […] SGOT (AST), SGPT (ALT), ALP, GGT, bilirubin LDH and total protein were estimated using Reflotron Plus Analyzer and Roche kits (Roche Diagnostics GmbH, Mannheim Germany) and United diagnostic kits assay. Hematological tests were performed by Mindray BC-2800VET auto Hematology Analyzer.

[1] = blood, uninfected mice, i.v. 12 mg/kg then 6 mg/ml for 2 weeks
[2] = liver tissue, uninfected mice, i.v. 12 mg/kg then 6 mg/ml for 2 weeks
[3] = serum, uninfected mice, i.v. 12 mg/kg then 6 mg/ml for 2 weeks

CCOC(=O)CSC(=S)SCC(=O)OCC [Compound 4, diethyl 2,2′-(thiocarbonylbis(sulfanediyl))diacetate]
Eosinophils Mean ± SE [1]: 2.38 ± 0.09%
HCT Mean ± SE [1]: 45.9 ± 1.51^a
HGB Mean ± SE [1]: 12.4 ± 0.18^a g/dL
Lymphocytes Mean ± SE [1]: 4.8 ± 0.09%
MCH Mean ± SE [1]: 39.0 ± 1.0 pg
MCHC Mean ± SE [1]: 32.6 ± 0.9 g/dL
MCV Mean ± SE [1]: 87.31 ± 1.74 fL
Monocytes Mean ± SE [1]: 1.15 ± 0.01%
Neutrophils Mean ± SE [1]: 33.3 ± 1.1%
PLT Mean ± SE [1]: 670.7 ± 15.3 10^3/mm^3
RBC Mean ± SE [1]: 9.26 ± 0.1 10^6/mm^3
WBC Mean ± SE [1]: 8795 ± 45.9 Cell/mm^3
MDA [2]: 0.94 ± 0.03***^a nmol/g
NP-SH [2]: 6.88 ± 0.22***^a nmol/g
Total Protein [2]: 129.04 ± 2.80**^a g/l
side effects on food and water consumption comparing with control group (mice): no negative side effects
Alkaline phosphatase Mean ± SE (serum, uninfected mice, 12 mg/kg then 6 mg/ml for 2 weeks): 286.62 ± 4.67^a U/L
Bilirubin Mean ± SE [3]: 0.57 ± 0.017^a mg/dl
Cholesterol Mean ± SE [3]: 78.68 ± 3.2 mg/dL
GGT Mean ± SE [3]: 4.40 ± 0.13^a U/L
Glucose level Mean ± SE [3]: 96.38 ± 3.62**^a mg/dl
HDL Mean ± SE [3]: 41.6 ± 2.1^a mg/dl
LDH Mean ± SE [3]: 162.50 ± 1.84^a U/L
LDL Mean ± SE [3]: 23.3 ± 3.0 mg/dL
SGOT(AST) Mean ± SE [3]: 89.07 ± 3.82 U/L
SGPT(ALT) Mean ± SE [3]: 28.67 ± 1.15^a U/L
Total Protein Mean ± SE [3]: 7.66 ± 0.18
Triglycerides Mean ± SE [3]: 68.5 ± 1.6 mg/dL
VLDL Mean ± SE [3]: 13.7 ± 0.3 mg/dL
mortality in the group treated only with the compound, in words (uninfected mice): close to the control group
daily body weight (uninfected mice, day 0): 20.20 ± 0.38 gm
% change in daily body weight (uninfected mice, day 1): 0.49%
Food consumption (uninfected mice, day 1): 4.2 g/day/mice
Mortality (uninfected mice, day 1): 0%
Water consumption (uninfected mice, day 1): 5.2 g/day/mice
daily body weight (uninfected mice, day 1): 20.30 ± 0.36 gm
% change in daily body weight (uninfected mice, day 2): 9.40%
Food consumption (uninfected mice, day 2): 4.5 g/day/mice
Mortality (uninfected mice, day 2): 0%
Water consumption (uninfected mice, day 2): 5.2 g/day/mice
daily body weight (uninfected mice, day 2): 22.10 ± 0.23 gm
% change in daily body weight (uninfected mice, day 3): 16.83%
Food consumption (uninfected mice, day 3): 4.4 g/day/mice
Mortality (uninfected mice, day 3): 0%
Water consumption (uninfected mice, day 3): 5.4 g/day/mice
daily body weight (uninfected mice, day 3): 23.60 ± 0.33 gm
% change in daily body weight (uninfected mice, day 4): 19.80%
Food consumption (uninfected mice, day 4): 4.5 g/day/mice
Mortality (uninfected mice, day 4): 0%
Water consumption (uninfected mice, day 4): 5.5 g/day/mice
daily body weight (uninfected mice, day 4): 24.20 ± 0.20 gm
% change in daily body weight (uninfected mice, day 5): 23.26%
Food consumption (uninfected mice, day 5): 4.6 g/day/mice
Mortality (uninfected mice, day 5): 0%
Water consumption (uninfected mice, day 5): 5.5 g/day/mice
daily body weight (uninfected mice, day 5): 24.90 ± 0.23 gm
% change in daily body weight (uninfected mice, day 6): 27.22%
Food consumption (uninfected mice, day 6): 4.6 g/day/mice
Mortality (uninfected mice, day 6): 0%
Water consumption (uninfected mice, day 6): 5.7 g/day/mice
daily body weight (uninfected mice, day 6): 25.70 ± 0.21 gm
% change in daily body weight (uninfected mice, day 7): 29.70%
Food consumption (uninfected mice, day 7): 4.8 g/day/mice
Mortality (uninfected mice, day 7): 0%
Water consumption (uninfected mice, day 7): 5.8 g/day/mice
daily body weight (uninfected mice, day 7): 26.20 ± 0.24 gm
% change in daily body weight (uninfected mice, day 8): 32.17%
Food consumption (uninfected mice, day 8): 4.9 g/day/mice
Mortality (uninfected mice, day 8): 0%
Water consumption (uninfected mice, day 8): 5.8 g/day/mice
daily body weight (uninfected mice, day 8): 26.70 ± 0.26 gm
% change in daily body weight (uninfected mice, day 9): 32.67%
Food consumption (uninfected mice, day 9): 4.9 g/day/mice
Mortality (uninfected mice, day 9): 0%
Water consumption (uninfected mice, day 9): 5.9 g/day/mice
daily body weight (uninfected mice, day 9): 26.80 ± 0.29 gm
% change in daily body weight (uninfected mice, day 10): 33.66%
Food consumption (uninfected mice, day 10): 5.1 g/day/mice
Mortality (uninfected mice, day 10): 0%
Water consumption (uninfected mice, day 10): 5.9 g/day/mice
daily body weight (uninfected mice, day 10): 27.00 ± 0.27 gm
% change in daily body weight (uninfected mice, day 11): 35.64%
Food consumption (uninfected mice, day 11): 5.2 g/day/mice
Mortality (uninfected mice, day 11): 0%
Water consumption (uninfected mice, day 11): 6.0 g/day/mice
daily body weight (uninfected mice, day 11): 27.40 ± 0.35 gm
% change in daily body weight (uninfected mice, day 12): 36.96%
Food consumption (uninfected mice, day 12): 6.0 g/day/mice
Mortality (uninfected mice, day 12): 0%
Water consumption (uninfected mice, day 12): 6.11 g/day/mice
daily body weight (uninfected mice, day 12): 27.66 ± 0.28 gm
% change in daily body weight (uninfected mice, day 13): 35.51%
Food consumption (uninfected mice, day 13): 6.0 g/day/mice
Mortality (uninfected mice, day 13): 10%
Water consumption (uninfected mice, day 13): 6.2 g/day/mice
daily body weight (uninfected mice, day 13): 27.77 ± 0.27 gm
% change in daily body weight (uninfected mice, day 14): 38.61%
Food consumption (uninfected mice, day 14): 6.1 g/day/mice
Mortality (uninfected mice, day 14): 10%
Water consumption (uninfected mice, day 14): 6.2 g/day/mice
daily body weight (uninfected mice, day 14): 28.00 ± 0.37 gm
% change in daily body weight (uninfected mice, day 15): 41.70%
Food consumption (uninfected mice, day 15): 6.1 g/day/mice
Mortality (uninfected mice, day 15): 10%
Water consumption (uninfected mice, day 15): 6.3 g/day/mice
daily body weight (uninfected mice, day 15): 28.62 ± 0.41 gm
